Read-outs that look alike come from different tables or passages of the source.
Legend:
[1] = Plasma and urine pharmacokinetics in patients (LC-MS/MS, non-compartmental); assay type: in vivo, human; details: for mean ratio of AUC0 − last (accumulation): RP2D level DL 2.1, 200 mg BID; for Tmax: po, all dose levels; for CL renal: urine, urine 0 to 12 h, cycle 1 day 1
Protocol: Blood samples for PK analysis were collected in cycle 1, on days 1, 4 and 18 pre-dose and at 0.5, 1, 2, 3, 5, 8, and 12 h post-dose. Urine samples were collected on day 1 of cycle 1 before dosing and from 0 to 12 h after dosing. Plasma and urine concentrations of TAS-119 were determined by validated liquid chromatography–tandem mass spectrometry method. PK parameters included the peak plasma concentration (Cmax), time to reach maximum concentration in plasma (Tmax), area under the plasma concentration–time curve up to the last observable concentration (AUC0 − last) and up to infinity (AUC0 − inf), terminal phase elimination half-life (T1/2), clearance (CL/F), apparent volume of distribution (Vd/F), renal clearance (CLr) and oral clearance (CL/F).
The influence of polymorphisms of SLCO1B1 encoding the drug influx transporter OATP1B1 was examined in a blood sample obtained pre-dose on day 1 of cycle 1 for all patients during the dose escalation part. MYC amplification and β-catenin mutation were assessed in archival formalin-fixed paraffin-embedded tumour samples obtained after enrolment of the patient into the study.
Descriptive statistics were used to summarise safety data (AEs, vital signs and clinical laboratory results) overall response based on RECIST, PK and PD data. PK parameters were calculated by standard non-compartmental methods using Phoenix^TMWinNonlin® (Ver 6.3 or later, Certara L.P.). Dose proportionality of TAS-119 was evaluated with a power model and a linear regression model using logarithmic values of PK parameters such as Cmax and AUCs, as well as a one-way analysis of variance (ANOVA) using dose-normalised parameters such as Cmax, AUCs, CL/F, and apparent volume of distribution (Vd/F). Student’s t test was used to test statistical significance of the PD data and calculate the mean ratio for AUC0 − last at RP2D or MTD. Influence of SLCO1B1 genotypes on PK parameters was tested by ANOVA.

advanced solid tumours = test: Antitumour activity by RECIST v1.1; assay type: in vivo, human
Protocol: Adverse events (AEs) at baseline and during the study were recorded and graded based on the Common Terminology Criteria for Adverse Events v4.03. Tumour measurements were done at the end of every second cycle or as per the Institutional standard of care in case of clinical indications. Response were assessed using Response Evaluation Criteria in Solid Tumours (RECIST) v1.1.[19]
Planned enrolment in the dose escalation part included 18–30 evaluable patients, with 3–6 DLT evaluable patients in each DL. To further assess the feasibility as well as preliminarily efficacy of the RP2D, approximately 40 patients were planned to be enrolled into the expansion part (approximately 10–15 patients in each of the expansion cohorts). An additional 20 patients were pre-planned to be enrolled in an extension of the expansion part provided that either an overall response rate (ORR) of ≥20% for each specific indication or ≥10% for patients with MYC-amplified or β-catenin-mutated tumours had been observed.

AurA = test system: AurA; set-up: method as in doi:10.1016/S0959-8049(14)70524-6; details: pre-clinical data; cited from earlier work
AurB = test system: AurB; set-up: method as in doi:10.1016/S0959-8049(14)70524-6; details: pre-clinical data; cited from earlier work
AurC = test system: AurC; set-up: method as in doi:10.1016/S0959-8049(14)70524-6; details: pre-clinical data; cited from earlier work
TRK-A = test system: TRK-A; set-up: method as in doi:10.1016/S0959-8049(14)70524-6; details: pre-clinical data; cited from earlier work
TRK-C = test system: TRK-C; set-up: method as in doi:10.1016/S0959-8049(14)70524-6; details: pre-clinical data; cited from earlier work
[2] = cited from earlier work

## Cc1cc(Nc2nc(CC3(C(=O)O)CCN(C(=O)c4cccc(Cl)c4Cl)CC3)ccc2F)n[nH]1 [TAS-119]
[1]; 70–300 mg BID, power model, linear model and one-way ANOVA
  increase of plasma exposure with dose: dose-proportional
[1]; ANOVA
  CL/F and Vd/F among SLCO1B1 polymorphism-caused phenotypes (normal/intermediate/low): no statistical differences
[1]; day 4
  mean ratio of AUC0 − last (accumulation): 1.3
[1]; day 18
  mean ratio of AUC0 − last (accumulation): 1.2
[1]; continuous 200 mg BID schedule (DL 2.1), day 18
  ratio of AUC0 − last (accumulation): 1.1
[1]; human, in vivo
  accumulation ratios throughout all DLs: low
[1]; human, plasma, oral, blood concentrations, across dose levels
  half-life: 2.8 to 6 h
[1]; human, plasma, plasma, oral, read-out: Tmax range
  Tmax: 0.5 to 2 h
[1]; human, plasma, plasma, oral, read-out: median Tmax
  Tmax: 1.2 h
[1]; human, oral, read-out: CLr (renal clearance), median (converted)
  CL renal: 4.17 mL/min
[1]; human, oral, read-out: CLr (renal clearance), range
  CL renal: 2.5 to 5.17 mL/min
[1]; plasma
  oral clearance (CL/F), median: 9.79 L/h
  oral clearance (CL/F), range: 2.72 to 13.94 L/h
Advanced solid tumours; DL 2 (150 mg BID)
  patients with stable disease as best response: 6 patients
Advanced solid tumours; DL 2.1 (200 mg BID continuous schedule)
  patients with stable disease as best response: 4 patients
Advanced solid tumours; DL 2.1 (200 mg BID)
  patients with stable disease as best response: 4 patients
Advanced solid tumours; dose escalation part
  complete or partial response: no complete response (CR) or partial response (PR)
Advanced solid tumours; dose escalation part, fourteen patients
  stable disease as best response: 41%
Advanced solid tumours; epithelial mesothelioma, DL 2 (150 mg BID), at cycle 4
  patients with unconfirmed PR: One
Advanced solid tumours; expansion part
  target ORR of 20% (or ≥10% for MYC amplification or β-catenin mutation): not met
Advanced solid tumours; expansion part, 200 mg BID
  complete or partial response: no confirmed CR or PR
Advanced solid tumours; expansion part, MYC-amp/B-cat mutation-positive tumours
  patients with stable disease: 5 patients
Advanced solid tumours; expansion part, SCLC
  patients with stable disease: 5 patients
Advanced solid tumours; expansion part, basket cohort (1 mesothelioma, 1 colorectal cancer)
  patients with stable disease: 2 patients
Advanced solid tumours; expansion part, breast cancer
  patients with stable disease: 1 patients
AurA
  IC50: 1.04 nM
AurB
  IC50: 95 nM
AurC
  IC50: 36.5 nM
TRK-A
  IC50: 1.46 ± 0.16 nM
TRK-C
  IC50: 1.47 ± 0.04 nM
[2]; animals, considerable individual variation
  microscopic findings in pre-clinical high-dose toxicity study: degeneration and regeneration or hyperplasia of epithelial tissue
[2]; cyclic administration 4 days on/3 days off, pre-clinical
  vomiting and liquid faeces, cyclic administration versus daily administration: less frequent vomiting and liquid faeces
[2]; only in dogs
  microscopic findings in pre-clinical high-dose toxicity study, eyes: involvement of the epithelium of the eyes

From PMC7852567, “A first-in-human phase 1 and pharmacological study of TAS-119, a novel selective Aurora A kinase inhibitor in patients with advanced solid tumours” (British Journal of Cancer, 2020)
